Data published in patent publication US9150530B2, “Esters of 4, 9-dihydroxy-naphtho [2, 3-b] furans for disease therapies” (Zhoushan Haizhongzhou Xinsheng Pharmaceuticals Co., Ltd., priority 2011, dated 2015).

Assays:
H1299 = experiment: Effect of drug incubation time on biological activity, MTT, H1299; type: cell-based; settings: H1299 (no NQ01 activity)
Procedure: (§1) Cell Viability Determination: Popular MTT method (Archives of Biochemistry and Biophysics, 1993, 303: 474-482) was used to screen the in vitro effects of the invented drugs. Briefly, 5000 to 10000 cells were inoculated per well in a 96-well plate. After overnight incubation, drug was added to the wells at final concentration of 10 μM, […], 2.5 μM, 1.25 μM, or 1 μM, 0.75 μM, 0.5 μM and 0.25 μM in complete culture medium. Each dose level covered 4 equivalent wells. After 48 hour incubation, one tenth volume of 5 mg/mL MTT (thiazolyl blue tetrazolium bromide, Sigma-Aldrich) stock solution was added, and incubation was continued for 2 hours. Then medium was removed and 100 μL of isopropanol solution comprising 86% isopropanol, 4% aqueous 1 N HCl and 10% aqueous SDS solution (10% in concentration) was added. The absorbance of each well at 570 nm wavelength was measured by a micro-plate reader after gentle shaking for 20 minutes. Drug concentrations of 50% cell viability (IC50) were calculated by LOGIT method.
(§2) Effect of Drug Incubation Time on the Biological Activities of Compound XIII (FIG. 7): MTT assay was used for this experiment. Same procedure as described in “Cell Viability Determination” section. Briefly, cancer cells were inoculated on 96 well culture plates. […] The viability of cells at each well was read out using MTT method.

DLD1 [1] = experiment: Effect of NQ01 inhibitor (dicumarol) on biological activity, MTT, DLD1; type: cell-based; settings: DLD1 (significant NQ01 enzymatic activity); dicumarol 40 μM; 48 hr
Procedure: as §1
(§3) Effect of NQ01 Inhibitor (Dicumarol) on the Biological Activities of 2-acetyl-4,9-diacetoxy-naphtho[2,3-b]furan and Compound XIII (Part B and C of FIG. 4):MTT assay was used for this experiment. Same procedure as described in “Cell Viability Determination” section. […] The viability of cells at each well was read out after 48 hr incubation in cell culture incubator.

[2] = Metabolism in biological fluid (human whole blood, cancer cell lysate, liver microsomes, mouse oral uptake), HPLC; type: in vitro ADME; settings: liver microsomes or mouse oral uptake system, 20 μM, 37° C.
Procedure: Second, a major metabolite found after incubation of compound I, III, IV, VI or XIII in biological fluid, such as human whole blood, or cancer cell lysate, or liver microsomes, or mouse oral uptake system, is compound XII (FIG. 3). Similarly, a major metabolite found after incubation of compound V, VII or XIV in biological fluid is 2-(1-hydroxy-n-propyl)-naphtho[2,3-b]furan-4,9-dione (data not shown). Reduction of the position 2 substituent carbonyl group is part of quinone redox reaction as evidenced by the β-lapachone effect on the formation of compound XII in the compound XIII incubation mixture of human whole blood (part D of FIG. 3). The possible reaction mechanism is proposed as shown in scheme 7, in which the two electron reduction could be NQ01 catalyzed reduction or two successive cytochrome b5 reductase or p450 reductase catalyzed reaction. As substrate of these enzymes, β-lapachone could compete for the two electron or single electron reaction and thus reduced formation of the metabolism product.
Crystalline or amorphous solid of compound was mixed with excipient and suspended in 0.5% carboxymethylcellulose (CMC) solution in a mortar. Then the mixture was orally administered into ICR mouse at the predetermined dosage. At the predetermined time point, blood was drawn from the mouse and stored in the vial containing heparin. The blood samples were centrifuged at 6,000 rpm for 10 min, and plasmas were separated. To each plasma sample, 9 times volume of acetonitrile/methyl trifluoromethanesulfonate (1000:1) or acetonitrile/concentrated HCl (1000:1) was added. The resulting mixtures were vortexed and incubated in dry ice for 30 minutes or in −20° C. freezer for 3 hours, then centrifuged, and supernatants were separated for HPLC analysis using gradient B.
The biological systems for in vitro metabolism study include: human whole blood stabilized with sodium citrate; cancer cell lysate (obtained using freeze-thaw method, 10 mg/ml in protein concentration for use); liver microsomes with NADPH generation system (prepared according to the protocol provided by iPhase Pharma, Beijing, China);
10 mM of a compound of formula I or its analog or compound XIII in DMSO (however, compound VI was in DMF) was added into the biological system to a final concentration of 20 μM. The mixtures were incubated at 37° C. for predetermined time. To each sample, then 9 times volume of acetonitrile was added. The resulting mixtures were vortexed and incubated in dry ice for 30 minutes or in −20° C. freezer for 3 hours, then centrifuged, and supernatants were separated for HPLC analysis using gradient B.

DLD1 [3] = experiment: Effect of drug incubation time on biological activity, MTT, DLD1; type: cell-based; settings: DLD1 (significant NQ01 activity)
Procedure: as §1, §2

Panc 1 = experiment: Effect of drug incubation time on biological activity, MTT, Panc 1; type: cell-based; settings: Panc 1 (no NQ01 activity)
Procedure: as §1, §2

A549 = experiment: Effect of drug incubation time on biological activity, MTT, A549; type: cell-based; settings: A549 (significant NQ01 activity)
Procedure: as §1, §2

Panc-1 = experiment: Effect of NQ01 inhibitor (dicumarol) on biological activity, MTT, Panc-1; type: cell-based; settings: Panc-1 (no significant NQ01 enzymatic activity); dicumarol 40 μM; 48 hr
Procedure: as §1, §3

- Major metabolite found after incubation in biological fluid [2]: compound XII
Compound: CC(=O)c1cc2c(o1)C(=O)c1ccccc1C2=O [compound XIII, 2-acetyl-naphtho[2,3-b]furan-4,9-dione]
- Cell growth inhibition, full time treatment versus 4 hour treatment (H1299): full time treatment with compound XIII caused much higher cell growth inhibition than 4 hour treatment
- Dicumarol effect on anticancer activity (DLD1 [1]): dicumarol attenuates anticancer activities
- Cell growth inhibition, full time treatment versus 4 hour treatment (DLD1 [3]): made no significant difference in cell growth inhibition
- Cell growth inhibition, full time treatment versus 4 hour treatment (Panc 1): full time treatment with compound XIII caused much higher cell growth inhibition than 4 hour treatment
- Cell growth inhibition, full time treatment versus 4 hour treatment (A549): made no significant difference in cell growth inhibition
- Dicumarol effect on anticancer activity (Panc-1): dicumarol showed little effect
